Reference: patent EP3974434B1, “MACROLIDE DERIVATIVES, PREPARATION METHOD AND APPLICATION THEREOF” (Zhejiang Hisun Pharmaceutical Co., Ltd., priority 2019, dated 2020)

Assays:
[1] = target: T1, TRKA (Homo sapiens, UniProt P04629); test: HTRF KinEASE-TK kinase activity inhibition assay, TRKA; assay type: biochemical; conditions: ATP 100 µM
T1 construct: purchased Carna bioscience 08-186
From the text: The following method was used to determine the inhibition degrees of the compounds of the present invention on the activity of recombinant human NTRK family kinase in vitro. In this method, HTRF®KinEASE-TK tyrosine kinase kit (article number: 62TK0PEB) of Cisbio company was used, and the principle of the kit was based on time-resolved fluorescence resonance energy transfer (TF-FRET), and the inhibition of the compounds on the activity of the NTRK kinase was reflected by determining a phosphorylation degree of a biotinylated polypeptide substrate mediated by NTRK kinase. For detailed experimental operation, please refer to the kit instruction. Recombinant human wild-type NTRK proteins were purchased from Carna bioscience (the article numbers were TRKA #08-186, TRKB #08-187 and TRKC #08-197 respectively), and recombinant human mutant NTRK proteins were purchased from SignalChem (the article numbers were TRKA G595R #N16-12BG-10, TRKA G667C # N16-12CG-10, and TRKC G623R # N18-12CH-10 respectively).
The experimental methods were operated according to the steps in the kit instruction, and were briefly described as follows: a test compound was first dissolved in DMSO to prepare a storage solution, and then diluted in gradient with a buffer provided in the kit. A final concentration of the test compound in the reaction system ranged from 1,000 nM to 0.004 nM. An ATP Km value concentration of each NTRK protein was determined by using an ATP solution diluted in gradient (Sangon Biotech (Shanghai) Co., Ltd., A600311). According to the Km value obtained, the ATP concentrations in the reaction system were set as 100 µM for TRKA, 10 µM for TRKB, 50 µM for TRKC, 7 µM for TRKA(G595R), 1 µM for TRKA(G667C) and 100 µM for TRKC(G623R). The reaction was carried out in a 384-well microplate. Firstly, the compound and a certain amount of corresponding NTRK protein were added to the wells and incubated for 5 minutes to 10 minutes at room temperature. Then, the ATP solution and the biotinylated polypeptide substrate solution were added to the reaction solution and incubated with shaking at room temperature for 60 minutes. Then, an anti-phosphorylated tyrosine antibody coupled with a europium compound and streptavidin coupled with modified allophycocyanin XL665 were added to the reaction, and continuously incubated with shaking at room temperature for 1 hour. After incubation, fluorescence intensity values of each well at an excitation wavelength of 304 nm, and emission wavelengths of 620 nm and 665 nM were determined in a TF-FRET mode on a microplate reader. Compared with the fluorescence intensity ratio of a control group (0.1% DMSO), the percentage inhibition rates of the compound at each concentration were calculated, and the IC50 value of the compound was obtained by performing nonlinear regression analysis for logarithmic value of the compound concentration - inhibition rate by GraphPad Prism 5 software, which can be seen in Table 1. Table 1 IC50 data of the compounds of the present invention on TRK enzyme activity inhibition

[2] = target: T2, ALK(L1196M, G1202R) (Homo sapiens, UniProt Q9UM73, G1202R/L1196M); test: HTRF KinEASE-TK kinase activity inhibition assay, ALK(L1196M, G1202R); assay type: biochemical; conditions: ATP 25 µM
T2 construct: purchased SignalChem A19-12NG-10
T2 sequence (Q9UM73 19-1620 L1196M/G1202R): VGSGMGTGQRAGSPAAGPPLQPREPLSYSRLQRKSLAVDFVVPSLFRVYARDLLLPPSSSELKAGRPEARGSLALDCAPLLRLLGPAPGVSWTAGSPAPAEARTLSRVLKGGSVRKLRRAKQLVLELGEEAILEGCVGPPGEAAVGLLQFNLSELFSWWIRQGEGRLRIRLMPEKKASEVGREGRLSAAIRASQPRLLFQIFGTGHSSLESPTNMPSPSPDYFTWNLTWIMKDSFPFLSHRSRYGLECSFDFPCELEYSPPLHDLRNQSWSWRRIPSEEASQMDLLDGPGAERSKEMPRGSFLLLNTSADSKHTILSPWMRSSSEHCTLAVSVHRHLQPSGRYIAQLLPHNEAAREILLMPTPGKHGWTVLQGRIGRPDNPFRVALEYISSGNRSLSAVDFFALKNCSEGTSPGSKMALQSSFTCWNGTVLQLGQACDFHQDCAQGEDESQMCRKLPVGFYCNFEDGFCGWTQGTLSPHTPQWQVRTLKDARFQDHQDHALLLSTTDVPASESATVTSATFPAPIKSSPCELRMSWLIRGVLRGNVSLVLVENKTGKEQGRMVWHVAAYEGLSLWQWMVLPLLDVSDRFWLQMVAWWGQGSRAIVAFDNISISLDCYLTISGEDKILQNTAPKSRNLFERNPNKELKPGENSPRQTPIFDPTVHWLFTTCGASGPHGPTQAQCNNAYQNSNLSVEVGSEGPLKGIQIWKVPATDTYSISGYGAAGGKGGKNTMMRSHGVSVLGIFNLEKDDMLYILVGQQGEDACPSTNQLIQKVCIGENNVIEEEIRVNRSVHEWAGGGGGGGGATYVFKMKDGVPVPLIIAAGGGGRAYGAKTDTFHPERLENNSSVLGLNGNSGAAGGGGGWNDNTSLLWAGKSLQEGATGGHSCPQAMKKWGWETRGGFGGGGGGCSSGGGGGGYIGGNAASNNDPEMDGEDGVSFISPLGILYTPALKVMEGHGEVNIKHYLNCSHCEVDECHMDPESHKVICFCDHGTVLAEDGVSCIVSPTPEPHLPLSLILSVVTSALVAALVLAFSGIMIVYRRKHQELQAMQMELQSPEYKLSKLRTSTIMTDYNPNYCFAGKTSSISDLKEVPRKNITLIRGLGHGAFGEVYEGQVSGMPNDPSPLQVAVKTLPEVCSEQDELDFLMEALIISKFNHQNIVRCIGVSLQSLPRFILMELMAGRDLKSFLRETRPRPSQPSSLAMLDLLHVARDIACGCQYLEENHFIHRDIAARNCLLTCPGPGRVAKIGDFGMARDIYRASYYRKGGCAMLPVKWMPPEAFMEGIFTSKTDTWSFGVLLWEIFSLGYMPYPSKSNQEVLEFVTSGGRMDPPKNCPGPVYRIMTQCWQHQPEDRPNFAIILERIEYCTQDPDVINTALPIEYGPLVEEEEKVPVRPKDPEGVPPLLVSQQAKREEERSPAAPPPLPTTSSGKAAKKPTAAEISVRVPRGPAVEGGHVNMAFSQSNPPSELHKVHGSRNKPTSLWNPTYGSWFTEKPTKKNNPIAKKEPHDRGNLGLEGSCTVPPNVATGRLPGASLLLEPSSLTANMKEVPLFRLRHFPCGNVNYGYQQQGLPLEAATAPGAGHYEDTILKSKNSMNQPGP
From the text: The following method was used to determine the inhibition degrees of the compounds of the present invention on the activities of recombinant human ALK(G1202R) and ALK(L1196M, G1202R) kinases in vitro. In this method, HTRF®KinEASE-TK tyrosine kinase kit (article No. 62TK0PEB) of Cisbio company was used, the principle of the kit was based on time-resolved fluorescence resonance energy transfer (TF-FRET), and the inhibitions of the compounds on the activities of the ALK(G1202R) and ALK(L1196M, G1202R) kinases were reflected by determining a phosphorylation degree of a biotinylated polypeptide substrate mediated by ALK kinase. For detailed experimental operation, please refer to the kit instruction. […]
The experimental flow was briefly described as follows: a test compound was first dissolved in DMSO to prepare a storage solution, and then diluted in gradient with a buffer provided in the kit. […] An ATP Km value concentration of each ALK protein was determined by using an ATP solution diluted in gradient (Sangon Biotech (Shanghai) Co., Ltd., A600311). […] After incubation, fluorescence intensity values of each well at an excitation wavelength of 304 nm, and emission wavelengths of 620 nm and 665 nM were determined in a TF-FRET mode on a microplate reader, and the fluorescence intensity ratio 665/620 of each hole was calculated. […]

T1 sequence (P04629 33-796): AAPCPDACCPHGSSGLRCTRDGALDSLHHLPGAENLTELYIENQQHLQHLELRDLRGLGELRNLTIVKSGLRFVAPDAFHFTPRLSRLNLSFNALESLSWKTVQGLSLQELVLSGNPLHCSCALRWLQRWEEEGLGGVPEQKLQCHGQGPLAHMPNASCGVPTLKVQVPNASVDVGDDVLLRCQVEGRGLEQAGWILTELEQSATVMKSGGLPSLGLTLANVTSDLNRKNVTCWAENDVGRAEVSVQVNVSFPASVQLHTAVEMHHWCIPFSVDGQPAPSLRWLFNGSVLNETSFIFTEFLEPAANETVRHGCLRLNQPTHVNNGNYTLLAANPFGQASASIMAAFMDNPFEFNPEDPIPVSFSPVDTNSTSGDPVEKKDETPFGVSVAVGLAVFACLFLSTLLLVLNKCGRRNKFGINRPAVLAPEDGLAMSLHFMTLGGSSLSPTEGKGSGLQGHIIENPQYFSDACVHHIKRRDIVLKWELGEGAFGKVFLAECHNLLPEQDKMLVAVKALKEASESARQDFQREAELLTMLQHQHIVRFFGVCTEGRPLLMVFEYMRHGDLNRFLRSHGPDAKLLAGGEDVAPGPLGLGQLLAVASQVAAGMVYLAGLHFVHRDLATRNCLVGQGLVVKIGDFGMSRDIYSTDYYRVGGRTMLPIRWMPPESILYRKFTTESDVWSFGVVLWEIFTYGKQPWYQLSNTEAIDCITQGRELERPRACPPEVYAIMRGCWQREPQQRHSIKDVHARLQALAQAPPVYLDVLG

| IC50 [1] | IC50 [2] | Structure (SMILES) |
| --- | --- | --- |
| 0.82 nM | 24.2 nM | C[C@H]1Nc2ccn3nc(N)c(c3n2)C(=O)NC[C@@]2(C)Cc3cc(F)cc1c3O2 [Example 25, (3R,11R)-16-amino-6-fluoro-3,11-dimethyl-10-oxa-2,13,17,18,21-pentaazapentacyclo[13.5.2.1^8,11.0^4,9. 0^18,22]tricosa-1(21),4,6,8,15(22),16,19-heptaen-14-one] |
| 0.56 nM | 20.7 nM | C[C@H]1Nc2ccn3ncc(c3n2)C(=O)NC[C@@]2(C)Cc3cc(F)cc1c3O2 [Example 8, (3R,11R)-6-fluoro-3,11-dimethyl-10-oxa-2,13,17,1 8,21-pentaazapentacyclo[13.5.2.1^8,11.0^4,9.0^18,22]tric osa-1(21),4,6,8,15(22),16,19-heptaen-14-one] |
